Assay results as given in US20240317708A1, “INHIBITORS OF TRANSGLUTAMINASES” (ZEDIRA GMBH, priority 2021, published 2024).

Assays:
[1] = Log D shake flask method (octanol / PBS pH 7.4, HPLC); type: physicochemical; settings: octanol/phosphate-buffered saline (PBS); octanol / PBS pH 7.4, shake flask
Procedure: In order to classify the inventive compounds according to their lipophilicity, Log D values (distribution coefficient) were determined by means of the well-established shake flask method, measuring the partition of a compound between an octanol and phosphate-buffered saline (PBS, pH 7.4) by HPLC.

[2] = target: T1, recombinant human transglutaminase 2 (Homo sapiens, UniProt P21980); assay: Transglutaminase assay (dansylcadaverine incorporation into dimethylcasein, DCC-assay); type: biochemical; settings: recombinant human TG2 10 nM, dansylcadaverine/dimethylcasein, 37° C.
T1 construct: purchased Zedira T022
T1 sequence (P21980 1-687): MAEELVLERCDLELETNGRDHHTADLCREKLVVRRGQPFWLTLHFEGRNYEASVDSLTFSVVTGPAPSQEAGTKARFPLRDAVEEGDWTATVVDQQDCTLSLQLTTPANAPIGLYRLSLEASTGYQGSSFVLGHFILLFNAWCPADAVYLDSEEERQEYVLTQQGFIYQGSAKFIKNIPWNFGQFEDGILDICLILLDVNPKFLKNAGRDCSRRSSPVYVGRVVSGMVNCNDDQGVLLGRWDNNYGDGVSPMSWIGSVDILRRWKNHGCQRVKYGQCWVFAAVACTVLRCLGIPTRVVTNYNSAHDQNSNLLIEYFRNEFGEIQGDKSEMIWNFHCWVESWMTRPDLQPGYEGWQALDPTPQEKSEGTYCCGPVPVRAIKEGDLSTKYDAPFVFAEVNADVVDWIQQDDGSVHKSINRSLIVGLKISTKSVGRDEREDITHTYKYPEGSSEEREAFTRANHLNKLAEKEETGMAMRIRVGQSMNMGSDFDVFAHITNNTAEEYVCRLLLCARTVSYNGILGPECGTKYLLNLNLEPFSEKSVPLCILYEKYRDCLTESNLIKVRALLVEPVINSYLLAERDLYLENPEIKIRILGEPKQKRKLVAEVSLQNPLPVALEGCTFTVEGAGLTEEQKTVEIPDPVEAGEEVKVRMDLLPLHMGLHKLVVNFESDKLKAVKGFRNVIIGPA
Summary of the method: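 IC50 derived from fluorescence slope between 20 and 30 min (λex 330 nm, λem 500 nm, 37 °C), expressed relative to a 2% DMSO control. Reaction: 10 nM recombinant human TG2, 4 μM dimethylcasein, 16.7 μM dansylcadaverine, 10 mM CaCl2 and glutathione, pH 8.0.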

[3] = Caco-2 permeability assay (CacoReady kit); type: in vitro ADME; settings: human
Summary of the method: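 Apparent permeability coefficients (Papp) were measured across Caco-2 cell barriers using a ready-to-use kit run per the supplier's protocol. Values serve as a predictor of oral/intestinal bioavailability.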

SMILES	logD [1]	IC50 [2]	Papp [3]
CCC12CC3CC(C1)CC(NC(=O)Cn1cccc(NC(=O)[C@H](CC/C=C/C(=O)OC)NC(=O)c4oc5ccccc5c4C)c1=O)(C3)C2 [III-48, (S,E)-methyl 7-(1-(2-(3-ethyladamantan-1-amino)-2-oxoethyl)-2-oxo-1,2-dihydropyridin-3-ylamino)-6-(3-methylbenzofuran-2-carboxamido)-7-oxohept-2-enoate]	3 to 5	25 to 250 nM	1 to 10 ×10⁻⁶ cm/s
COC(=O)/C=C/CC[C@H](NC(=O)c1oc2ccccc2c1C)C(=O)Nc1cccn(CC(=O)NC23CC4CC(C2)CC(C(F)(F)F)(C4)C3)c1=O [III-49, (S,E)-methyl 7-(1-(2-(3-trifluoromethyladamantan-1-amino)-2-oxoethyl)-2-oxo-1,2-dihydropyridin-3-ylamino)-6-(3-methylbenzofuran-2-carboxamido)-7-oxohept-2-enoate]	3 to 5	25 to 250 nM	1 to 10 ×10⁻⁶ cm/s
COC(=O)/C=C/CC[C@H](NC(=O)c1oc2ccccc2c1C)C(=O)Nc1cccn(CC(=O)NC23CC4CC(CC(O)(C4)C2)C3)c1=O [III-50, (S,E)-methyl 7-(1-(2-(3-hydroxyadamantan-1-amino)-2-oxoethyl)-2-oxo-1,2-dihydropyridin-3-ylamino)-6-(3-methylbenzofuran-2-carboxamido)-7-oxohept-2-enoate]	1 to 3	25 to 250 nM	< 1 ×10⁻⁶ cm/s
COC(=O)/C=C/CC[C@H](NC(=O)c1oc2ccccc2c1C)C(=O)Nc1cccn(CC(=O)NC23CC4CC(CC(F)(C4)C2)C3)c1=O [III-51, (S,E)-methyl 7-(1-(2-(3-fluoroadamantan-1-amino)-2-oxoethyl)-2-oxo-1,2-dihydropyridin-3-ylamino)-6-(3-methylbenzofuran-2-carboxamido)-7-oxohept-2-enoate]	3 to 5	< 25 nM	1 to 10 ×10⁻⁶ cm/s
COC(=O)/C=C/CC[C@H](NC(=O)c1oc2ccccc2c1C)C(=O)Nc1cccn(CC(=O)NC23CC4CC(CC(Cl)(C4)C2)C3)c1=O [III-52, (S,E)-methyl 7-(1-(2-(3-chloroadamantan-1-amino)-2-oxoethyl)-2-oxo-1,2-dihydropyridin-3-ylamino)-6-(3-methylbenzofuran-2-carboxamido)-7-oxohept-2-enoate]	3 to 5	< 25 nM	1 to 10 ×10⁻⁶ cm/s
COC(=O)/C=C/CC[C@H](NC(=O)c1oc2ccccc2c1C)C(=O)Nc1cccn(CC(=O)NC23CC4CC(CC(Br)(C4)C2)C3)c1=O [III-53, (S,E)-methyl 7-(1-(2-(3-bromoadamantan-1-amino)-2-oxoethyl)-2-oxo-1,2-dihydropyridin-3-ylamino)-6-(3-methylbenzofuran-2-carboxamido)-7-oxohept-2-enoate]	3 to 5	< 25 nM	1 to 10 ×10⁻⁶ cm/s
COC(=O)/C=C/CC[C@H](NC(=O)c1oc2ccccc2c1C)C(=O)Nc1cccn(CC(=O)NC23CC4CC(C2)CC(C(=O)OC)(C4)C3)c1=O [III-54, (S,E)-methyl 7-(1-(2-(3-methyladamantane-3-carboxylate-1-amino)-2-oxoethyl)-2-oxo-1,2-dihydropyridin-3-ylamino)-6-(3-methylbenzofuran-2-carboxamido)-7-oxohept-2-enoate]	3 to 5	25 to 250 nM	< 1 ×10⁻⁶ cm/s
COC(=O)/C=C/CC[C@H](NC(=O)c1oc2ccccc2c1C)C(=O)Nc1cccn(CC(=O)NC23CC4CC(C2)C(F)(F)C(C4)C3)c1=O [III-55, (S,E)-methyl 7-(1-(2-(4,4-difluoroadamantan-1-amino)-2-oxoethyl)-2-oxo-1,2-dihydropyridin-3-ylamino)-6-(3-methylbenzofuran-2-carboxamido)-7-oxohept-2-enoate]	3 to 5	25 to 250 nM	1 to 10 ×10⁻⁶ cm/s
COC(=O)/C=C/CC[C@H](NC(=O)c1oc2ccccc2c1C)C(=O)Nc1cccn(CC(=O)NC(C)C23CC4CC(CC(C4)C2)C3)c1=O (stereo partly drawn) [III-57, (S,E)-methyl 7-(1-(2-(1-(1-adamantyl)ethanamino)-2-oxoethyl)-2-oxo-1,2-dihydropyridin-3-ylamino)-6-(3-methylbenzofuran-2-carboxamido)-7-oxohept-2-enoate]	3 to 5	25 to 250 nM	1 to 10 ×10⁻⁶ cm/s

Now from value to molecule:

logD [1]	IC50 [2]	Papp [3]	SMILES
3 to 5	25 to 250 nM	1 to 10 ×10⁻⁶ cm/s	COC(=O)/C=C/CC[C@H](NC(=O)c1oc2ccccc2c1C)C(=O)Nc1cccn(CC(=O)NCC23CC4CC(CC(C4)C2)C3)c1=O [III-56, (S,E)-methyl 7-(1-(2-(1-adamantylmethylamino)-2-oxoethyl)-2-oxo-1,2-dihydropyridin-3-ylamino)-6-(3-methylbenzofuran-2-carboxamido)-7-oxohept-2-enoate]
1 to 3	< 25 nM	< 1 ×10⁻⁶ cm/s	COC(=O)/C=C/CC[C@H](NC(=O)c1cncn1C)C(=O)Nc1cccn(CC(=O)N[C@@H]2C[C@@H]3CC[C@H]2C3)c1=O [III-58, (S,E)-methyl 7-(1-(2-((1S,2R,4R)-bicyclo[2.2.1]heptan-2-ylamino)-2-oxoethyl)-2-oxo-1,2-dihydropyridin-3-ylamino)-6-(1-methyl-1H-imidazole-5-carboxamido)-7-oxohept-2-enoate]
3 to 5	< 25 nM	1 to 10 ×10⁻⁶ cm/s	COC(=O)/C=C/CC[C@H](NC(=O)c1oc2ccccc2c1C)C(=O)Nc1cccn(CC(=O)N[C@@H]2C[C@@H]3CC[C@H]2C3)c1=O [III-59, (S,E)-methyl 7-(1-(2-((1 S,2R,4R)-bicyclo[2.2.1]heptan-2-ylamino)-2-oxoethyl)-2-oxo-1,2-dihydropyridin-3-ylamino)-6-(3-methylbenzofuran-2-carboxamido)-7-oxohept-2-enoate]
3 to 5	< 25 nM	< 1 ×10⁻⁶ cm/s	COC(=O)/C=C/CC[C@H](NC(=O)c1cncn1C)C(=O)Nc1cccn(CC(=O)N[C@H]2C[C@H]3CC[C@]2(C)C3(C)C)c1=O [III-60, (S,E)-methyl 6-(1-methyl-1H-imidazole-5-carboxamido)-7-oxo-7-(2-oxo-1-(2-oxo-2-((1R,2S,4R)-1,7,7-trimethylbicyclo[2.2.1]heptan-2-ylamino)ethyl)-1,2-dihydropyridin-3-ylamino)hept-2-enoate]
3 to 5	25 to 250 nM	1 to 10 ×10⁻⁶ cm/s	COC(=O)/C=C/CC[C@H](NC(=O)c1oc2ccccc2c1C)C(=O)Nc1cccn(CC(=O)N[C@H]2C[C@H]3CC[C@]2(C)C3(C)C)c1=O [III-61, (S,E)-methyl 6-(3-methylbenzofuran-2-carboxamido)-7-oxo-7-(2-oxo-1-(2-oxo-2-((1R,2S,4R)-1,7,7-trimethylbicyclo[2.2.1]heptan-2-ylamino)ethyl)-1,2-dihydropyridin-3-ylamino)hept-2-enoate]
1 to 3	< 25 nM	< 1 ×10⁻⁶ cm/s	COC(=O)/C=C/CC[C@H](NC(=O)c1cncn1C)C(=O)Nc1cccn(CC(=O)N[C@@H]2C[C@H]3CC[C@@H]2C3)c1=O [III-62, (S,E)-methyl 7-(1-(2-((1R,2R,4S)-bicyclo[2.2.1]heptan-2-ylamino)-2-oxoethyl)-2-oxo-1,2-dihydropyridin-3-ylamino)-6-(1-methyl-1H-imidazole-5-carboxamido)-7-oxohept-2-enoate]
3 to 5	< 25 nM	1 to 10 ×10⁻⁶ cm/s	COC(=O)/C=C/CC[C@H](NC(=O)c1oc2ccccc2c1C)C(=O)Nc1cccn(CC(=O)N[C@@H]2C[C@H]3CC[C@@H]2C3)c1=O [III-63, (S,E)-methyl 7-(1-(2-((1R,2R,4S)-bicyclo[2.2.1]heptan-2-ylamino)-2-oxoethyl)-2-oxo-1,2-dihydropyridin-3-ylamino)-6-(3-methylbenzofuran-2-carboxamido)-7-oxohept-2-enoate]
1 to 3	< 25 nM	1 to 10 ×10⁻⁶ cm/s	COC(=O)/C=C/CC[C@H](NC(=O)c1oc2ccccc2c1C)C(=O)Nc1cccn(CC(=O)NC23CCC(CC2)C3)c1=O [III-64, (S,E)-methyl 7-(1-(2-(bicyclo[2.2.1]heptan-1-ylamino)-2-oxoethyl)-2-oxo-1,2-dihydropyridin-3-ylamino)-6-(3-methylbenzofuran-2-carboxamido)-7-oxohept-2-enoate]
3 to 5	< 25 nM	1 to 10 ×10⁻⁶ cm/s	COC(=O)/C=C/CC[C@H](NC(=O)c1oc2ccccc2c1C)C(=O)Nc1cccn(CC(=O)NC2C3CCC2CC3)c1=O (stereo partly drawn) [III-65, (S,E)-methyl 7-(1-(2-(bicyclo[2.2.1]heptan-7-ylamino)-2-oxoethyl)-2-oxo-1,2-dihydropyridin-3-ylamino)-6-(3-methylbenzofuran-2-carboxamido)-7-oxohept-2-enoate]
